In article PMC8284461, “Piperidine-4-Carboxamides Target DNA Gyrase in Mycobacterium abscessus” (Antimicrobial Agents and Chemotherapy, 2021):
Converted amounts (≈) assume the structure as drawn.

Columns and labels:
[1] = system: M. abscessus subsp. abscessus ATCC 19977; assay: MIC, broth microdilution; format: cell-based, Mycobacterium abscessus; conditions: abscessus ATCC 19977 wild type, 90% growth inhibition, 3 days
Protocol: (§1) MIC was determined using the broth microdilution method in 96-well plates as described previously ([47]). Briefly, a 10-point 2-fold serial dilution of compounds was performed in 96-well plates (Costar 3370; Corning, USA) starting at twice the desired highest concentration. […] One hundred microliters of the bacterial suspension was seeded onto the 96-well plates containing 100 μl of the serially diluted compounds to give a final volume of 200 μl in each well with the final OD600 of 0.005. The plates were sealed with parafilm, placed onto wet paper towels in a lock-lock box and incubated for 3 days at 37°C with orbital shaking at 90 rpm. […] Absorbance values at day 3 were subtracted from the day 0 readout. Percent growth inhibition was calculated by dividing the absolute absorbance value of treated cells with untreated control and multiplying by 100. CLR was included in all MIC experiments as a positive control to monitor assay reproducibility. MIC was defined as 90% of growth inhibition relative to untreated controls.

[2] = system: M. abscessus subsp. abscessus Bamboo; assay: MIC, broth microdilution; format: cell-based, Mycobacterium abscessus; conditions: abscessus Bamboo wild type, 90% growth inhibition, 3 days
Protocol: as §1

[3] = system: M. abscessus subsp. abscessus K21; assay: MIC, broth microdilution; format: cell-based, Mycobacterium abscessus; conditions: Mycobacteroides abscessus, 72 h, 90% growth inhibition, 3 days
Protocol: as §1

[4] = system: M. abscessus subsp. abscessus M199; assay: MIC, broth microdilution; format: cell-based, Mycobacterium abscessus; conditions: Mycobacteroides abscessus, 72 h, 90% growth inhibition, 3 days
Protocol: as §1

[5] = system: M. abscessus subsp. abscessus M337; assay: MIC, broth microdilution; format: cell-based, Mycobacterium abscessus; conditions: Mycobacteroides abscessus, 72 h, 90% growth inhibition, 3 days
Protocol: as §1

[6] = system: M. abscessus subsp. abscessus M404; assay: MIC, broth microdilution; format: cell-based, Mycobacterium abscessus; conditions: Mycobacteroides abscessus, 72 h, 90% growth inhibition, 3 days
Protocol: as §1

[7] = system: M. abscessus subsp. abscessus M421; assay: MIC, broth microdilution; format: cell-based, Mycobacterium abscessus; conditions: Mycobacteroides abscessus, 72 h, 90% growth inhibition, 3 days
Protocol: as §1

[8] = system: M. abscessus subsp. abscessus M9; assay: MIC, broth microdilution; format: cell-based, Mycobacterium abscessus; conditions: Mycobacteroides abscessus, 72 h, 90% growth inhibition, 3 days
Protocol: as §1

[9] = system: M. abscessus subsp. bolletii CCUG 50184T; assay: MIC, broth microdilution; format: cell-based, Mycobacterium abscessus; conditions: Mycobacteroides abscessus, 72 h, 90% growth inhibition, 3 days
Protocol: as §1

[10] = system: M. abscessus subsp. bolletii M232; assay: MIC, broth microdilution; format: cell-based, Mycobacterium abscessus; conditions: Mycobacteroides abscessus, 72 h, 90% growth inhibition, 3 days
Protocol: as §1

[11] = system: M. abscessus subsp. bolletii M506; assay: MIC, broth microdilution; format: cell-based, Mycobacterium abscessus; conditions: Mycobacteroides abscessus, 72 h, 90% growth inhibition, 3 days
Protocol: as §1

[12] = system: M. abscessus subsp. massiliense CCUG 48898T; assay: MIC, broth microdilution; format: cell-based, Mycobacterium abscessus; conditions: Mycobacteroides abscessus, 72 h, 90% growth inhibition, 3 days
Protocol: as §1

[13] = system: M. abscessus subsp. massiliense M111; assay: MIC, broth microdilution; format: cell-based, Mycobacterium abscessus; conditions: Mycobacteroides abscessus, 72 h, 90% growth inhibition, 3 days
Protocol: as §1

[14] = system: M. abscessus subsp. abscessus Bamboo 844^r-2 (GyrA D91N); assay: MIC, resistant mutant; format: cell-based, Mycobacterium abscessus; conditions: Mycobacteroides abscessus
[15] = system: M. abscessus subsp. abscessus Bamboo 844^r-3 (GyrB S473W); assay: MIC, resistant mutant; format: cell-based, Mycobacterium abscessus; conditions: Mycobacteroides abscessus
[16] = system: M. abscessus subsp. abscessus ATCC 19977 844-TMF^r-4 (GyrB M474I); assay: MIC, resistant mutant; format: cell-based, Mycobacterium abscessus; conditions: Mycobacteroides abscessus, ATCC19977
[17] = system: M. abscessus subsp. abscessus ATCC 19977 MXF^r-1 (GyrA D96Y); assay: MIC, resistant mutant; format: cell-based, Mycobacterium abscessus; conditions: Mycobacteroides abscessus, ATCC19977
[18] = system: M. abscessus subsp. abscessus ATCC 19977 MXF^r-2 (GyrA D96N); assay: MIC, resistant mutant; format: cell-based, Mycobacterium abscessus; conditions: Mycobacteroides abscessus, ATCC19977
[19] = system: M. abscessus subsp. abscessus ATCC 19977 MXF^r-3 (GyrA D96G); assay: MIC, resistant mutant; format: cell-based, Mycobacterium abscessus; conditions: Mycobacteroides abscessus, ATCC19977
[20] = target: recombinant M. abscessus wild-type DNA gyrase (Mycobacteroides abscessus, UniProt B1ME45+B1ME58); assay: biochemical; set-up: species or system Mycobacterium abscessus; conditions: wild-type DNA gyrase; for IC50: relaxed pBR322 substrate, read-out: IC50, supercoiling activity
recombinant M. abscessus wild-type DNA gyrase, sequence (B1ME58 entry or part of it): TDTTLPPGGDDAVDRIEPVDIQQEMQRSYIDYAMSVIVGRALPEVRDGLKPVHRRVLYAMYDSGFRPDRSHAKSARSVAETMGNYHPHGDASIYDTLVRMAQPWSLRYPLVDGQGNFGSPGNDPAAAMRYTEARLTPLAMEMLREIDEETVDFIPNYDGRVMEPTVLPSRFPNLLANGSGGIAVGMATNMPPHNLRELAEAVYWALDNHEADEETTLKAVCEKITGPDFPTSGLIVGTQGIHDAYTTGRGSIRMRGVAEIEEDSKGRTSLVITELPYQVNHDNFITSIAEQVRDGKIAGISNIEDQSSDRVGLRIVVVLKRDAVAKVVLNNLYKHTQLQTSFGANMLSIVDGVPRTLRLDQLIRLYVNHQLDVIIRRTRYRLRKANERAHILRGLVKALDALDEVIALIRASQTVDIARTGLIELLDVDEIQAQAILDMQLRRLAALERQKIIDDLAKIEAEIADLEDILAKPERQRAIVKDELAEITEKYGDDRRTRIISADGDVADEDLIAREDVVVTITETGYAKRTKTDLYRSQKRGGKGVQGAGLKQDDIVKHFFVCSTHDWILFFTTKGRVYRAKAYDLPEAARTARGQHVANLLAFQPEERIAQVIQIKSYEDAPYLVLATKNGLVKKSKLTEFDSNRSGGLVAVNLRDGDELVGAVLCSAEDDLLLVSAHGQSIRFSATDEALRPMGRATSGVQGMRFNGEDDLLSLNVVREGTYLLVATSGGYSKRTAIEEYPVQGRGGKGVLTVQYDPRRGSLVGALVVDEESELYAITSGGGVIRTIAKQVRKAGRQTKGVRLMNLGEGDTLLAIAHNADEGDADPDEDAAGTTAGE
recombinant M. abscessus wild-type DNA gyrase, sequence (B1ME45 entry or part of it): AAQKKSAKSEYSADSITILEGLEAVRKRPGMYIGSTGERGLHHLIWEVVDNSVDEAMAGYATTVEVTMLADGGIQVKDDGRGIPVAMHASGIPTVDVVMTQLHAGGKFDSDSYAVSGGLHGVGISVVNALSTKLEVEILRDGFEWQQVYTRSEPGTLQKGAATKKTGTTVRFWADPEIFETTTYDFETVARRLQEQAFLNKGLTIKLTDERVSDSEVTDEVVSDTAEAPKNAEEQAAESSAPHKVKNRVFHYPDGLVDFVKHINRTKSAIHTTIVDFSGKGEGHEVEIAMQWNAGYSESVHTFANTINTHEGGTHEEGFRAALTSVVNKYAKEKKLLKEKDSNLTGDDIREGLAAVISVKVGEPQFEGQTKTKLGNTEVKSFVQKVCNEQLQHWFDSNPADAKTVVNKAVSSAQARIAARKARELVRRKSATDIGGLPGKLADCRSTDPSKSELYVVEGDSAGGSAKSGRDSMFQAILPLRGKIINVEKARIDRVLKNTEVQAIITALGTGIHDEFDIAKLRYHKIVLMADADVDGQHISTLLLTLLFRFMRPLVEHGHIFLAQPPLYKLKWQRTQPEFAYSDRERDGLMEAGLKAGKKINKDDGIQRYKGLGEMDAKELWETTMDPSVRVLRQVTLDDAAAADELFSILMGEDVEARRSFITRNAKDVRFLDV

[21] = target: GyrA D91N mutant recombinant M. abscessus DNA gyrase (Mycobacteroides abscessus, UniProt B1ME45+B1ME58, D91N); format: biochemical, Mycobacterium abscessus
GyrA D91N mutant recombinant M. abscessus DNA gyrase, sequence (B1ME58 2-839, stated change not applied): as the sequence (B1ME58 entry or part of it) above
GyrA D91N mutant recombinant M. abscessus DNA gyrase, sequence (B1ME45 2-675, stated change not applied): as the sequence (B1ME45 entry or part of it) above

[22] = system: P4C-resistant M. abscessus strains; assay: Cross-resistance, MICs for P4C-resistant strains; format: cell-based, Mycobacterium abscessus; conditions: P4C-resistant strains of Table 2
[23] = system: M. abscessus complex strains; assay: MIC across reference strains and clinical isolates; format: cell-based, Mycobacterium abscessus; conditions: Mycobacteroides abscessus; reference strains and clinical isolates of Table 1; read-out: MICs ranging across the M. abscessus complex strains
Protocol: as §1

[24] = system: M. abscessus subsp. abscessus ATCC 19977; assay: Time-concentration kill assay, planktonic cultures; format: cell-based, Mycobacterium abscessus; conditions: 1×, 4×, 8× MIC; CFU after 2 and 3 days
Protocol: At 0, 2, and 3 days, tubes were vortexed, and 20 μl of the cultures was transferred to round-bottom 96-well plates containing 180 μl of phosphate-buffered saline (PBS) (10010023; Thermo Fisher, USA) with 0.025% Tween 80 (PBS/Tween 80) for 10-fold serial dilution. To prevent compound carryover effects, we plated out serially diluted samples onto 7H10 agar supplemented with 0.4% activated charcoal (C9154; Sigma-Aldrich, USA) for all time points as described ([48]). CFU were enumerated after 4 days of incubation at 37°C.

[25] = system: M. abscessus subsp. abscessus ATCC 19977 biofilm; assay: Antibiofilm activity, MBEC biofilm assay; format: cell-based, Mycobacterium abscessus; conditions: 1×, 4×, 8× MIC; surface-attached CFU after 2 and 3 days
Protocol: The antibiofilm activity of 844 and 844-TMF was determined employing the MBEC 96-well Biofilm assay kit (19111; Innovotech, Edmonton, AB, Canada) as described previously ([15]) with minor modifications. Briefly, exponentially growing M. abscessus subsp. abscessus ATCC 19977 cultures were spun down at 3,200 × g for 10 min and washed with 7H9 broth without Tween 80 (‘7H9’). Bacteria were resuspended in ‘7H9’ to an OD600 of 0.0125, and 150 μl was dispensed into the wells of Innovotech 96-well plates. Pegs (protruding from the specialized lids of the Innovotech multiwell plates) were inserted into the bacterial suspensions in the wells, and the cultures were grown 24 h with shaking at 110 rpm at 37°C to allow attachment and growth of the bacteria on the surface of the pegs. […] Biofilm growth on the pegs was measured by CFU determination. The pegs were washed in 200 μl ‘7H9’ medium, removed, and placed in 1.7-ml microcentrifuge tubes (87003-294; VWR, Radnor, PA, USA) containing 500 μl PBS/Tween 80 (0.025%). The tubes were vortexed at 2,000 rpm for 90 s to detach and suspend the bacteria from the pegs before samples were serially diluted and plated onto 7H10 agar supplemented with 0.4% activated charcoal to determine CFU/peg.

[26] = system: M. abscessus subsp. abscessus Bamboo; assay: Selection and characterization of spontaneous resistant mutants; format: cell-based, Mycobacterium abscessus; conditions: agar with 8× MIC
[27] = Mycobacteroides abscessus, ATCC19977, 72 h
[28] = Mycobacteroides abscessus, 72 h

Structure (SMILES)	MIC [1, 27] [µM]	MIC [2, 28] [µM]	MIC [3] [µM]	MIC [4] [µM]	MIC [5] [µM]	MIC [6] [µM]	MIC [7] [µM]	MIC [8] [µM]	MIC [9] [µM]	MIC [10] [µM]	MIC [11] [µM]	MIC [12] [µM]	MIC [13] [µM]	MIC [14] [µM]	MIC [15] [µM]	MIC [16] [µM]	MIC [17] [µM]	MIC [18] [µM]	MIC [19] [µM]	IC50 [20] [µM]	other results
CCNC(=O)Nc1nc2cc(-c3cnc(C(C)(C)O)nc3)c(F)c([C@H]3CCCO3)c2[nH]1 [SPR719]	0.6 (≈ 0.257 µg/mL)	0.8 (≈ 0.343 µg/mL)	1.5 (≈ 0.643 µg/mL)	1.5 (≈ 0.643 µg/mL)	0.8 (≈ 0.343 µg/mL)	1.5 (≈ 0.643 µg/mL)	0.8 (≈ 0.343 µg/mL)	1.5 (≈ 0.643 µg/mL)	1.5 (≈ 0.643 µg/mL)	1.5 (≈ 0.643 µg/mL)	1.5 (≈ 0.643 µg/mL)	3 (≈ 1.29 µg/mL)	6.3 (≈ 2.7 µg/mL)	0.1 (≈ 0.0428 µg/mL)	0.05 (≈ 0.0214 µg/mL)	0.3 (≈ 0.129 µg/mL)	0.8 (≈ 0.343 µg/mL)	0.2 (≈ 0.0857 µg/mL)	0.3 (≈ 0.129 µg/mL)	2.3	effect on supercoiling activity ([20]; up to 50 μM): inhibited supercoiling activity; IC50, supercoiling activity [21]: same IC50 as the wild-type enzyme; cross-resistance caused by P4C resistance mutations [22]: did not cause cross-resistance
COc1ccc2nccc(NC(=O)C3CCN(CCc4ccc(Cl)cc4)CC3)c2n1 [compound 844]	8 (≈ 3.4 µg/mL)	12 (≈ 5.1 µg/mL)	14 (≈ 5.95 µg/mL)	6.3 (≈ 2.68 µg/mL)	6.3 (≈ 2.68 µg/mL)	6.3 (≈ 2.68 µg/mL)	6.3 (≈ 2.68 µg/mL)	6.3 (≈ 2.68 µg/mL)	14 (≈ 5.95 µg/mL)	6.3 (≈ 2.68 µg/mL)	6.3 (≈ 2.68 µg/mL)	14 (≈ 5.95 µg/mL)	12.5 (≈ 5.31 µg/mL)	> 100	90 (≈ 38.2 µg/mL)	40 (≈ 17 µg/mL)	40 (≈ 17 µg/mL)	15 (≈ 6.37 µg/mL)	15 (≈ 6.37 µg/mL)	4.6	MIC [1]: 8 µM (≈ 3.4 µg/mL); MIC [2]: 12 µM (≈ 5.1 µg/mL); MIC [23]: 6 to 14 µM (≈ 2.55 to 5.95 µg/mL); effect on supercoiling activity ([21]; GyrA D91N mutant DNA gyrase, up to 50 μM): No inhibition; bactericidal activity in planktonic cultures [24]: bactericidal; bactericidal activity against M. abscessus grown as biofilm [25]: bactericidal; frequency of spontaneous resistance [26]: 10^−8 /CFU
